This note sets out measurements from paper PMC8901119 (Chemical Science, 2021).

Several values for one entry are separate records, joined by “and”; a condition that tells them apart may be missing. Equal entries are not always repeated. Entries after “also recorded” stand apart in the source; their conditions may differ. Where two headings read alike, the source gives them in different places. Starred links: 1 amine or outer side, 2 acyl side, 3 side chain; linkers in the order of their positions; H or OH if unused. Non-standard residues stand in square brackets, D forms with d. Residues, ends and D or L forms follow the SMILES beside them. Ala(7-MeO-coumarin-4-yl) = COc1ccc2c(C[C@H](N)C(=O)O)cc(=O)oc2c1; X1 = C[C@H](NC(=S)[C@H](CCCNC(=N)N)N[*:1])C(=O)[*:2]; X2 = C[C@H](NC(=S)[C@H](CCCCN)N[*:1])C(=O)[*:2]

One series concerns cathepsin V (Cts V). The following applies: 27 °C, up to 100 min.
A further series relates to cathepsin K (Cts K). The following applies: 27 °C, up to 100 min.
For a further series, the system named is cathepsin S (Cts S). The following applies: 27 °C, up to 100 min.
For the next series, the system named is cathepsin B (Cts B). The following applies: human, 27 °C, up to 100 min.
Series [1] has as its system cathepsin L (Cts L). The following applies: human, 27 °C, up to 100 min.
The test system of series [2] is cathepsin L (Cts L). The note with it: human, 27 °C, up to 2-hour.
The nature of series [3]: HepG2 whole cell lysate in CL assay buffer. The following applies: human, 37 °C, up to 30 minutes (R1A); 24 hours (RS1A).
Another series can be described thus: HepG2 whole cell lysate. The following applies: human, 37 °C, up to 24 hours.
The target of a further series is Cts L (Homo sapiens, UniProt P07711). The experiment in a line: Cathepsin L activity assay with HepG2 whole cell lysate. The following applies: 0.05 mg/mL lysate, 200 μM Ac-FR-AFC, 37 °C, 1 h. Also noted: Cts L activity in human hepatocellular carcinoma HepG2 whole cell lysate; host or cells: HepG2 whole cell lysate. Type of series: biochemical. How it is done:
Cts L activity in human hepatocellular carcinoma HepG2 whole cell lysate (200 μg at 2.5 mg mL^−1; ab166833; Abcam, Cambridge, MA) was evaluated using a fluorometric Cathepsin L Activity Assay Kit (ab65306; Abcam, Cambridge, MA, USA) following the manufacturer's protocols. […] The cell lysate and the peptide inhibitor were incubated at room temperature for 10 min. A total of 2 μL of 10 mM CL substrate Ac-FR-AFC substrate (to a final concentration of 200 μM) was then added to each well, except the Lysate Background Control wells. Different concentrations (56 nM, 560 nM, and 1 μM) of SID 26681509, a known Cts L inhibitor, were used as positive controls. The samples were mixed; the plate was sealed to avoid evaporation and incubated at 37 °C for 1 h. The fluorescence of each sample was measured at 505 nm with an excitation wavelength of 400 nm on the Tecan plate reader. […]
Cts L activity in human hepatocellular carcinoma HepG2 whole cell lysate (200 µg at 2.5 mg/ml; ab166833; Abcam, Cambridge, MA, USA) was evaluated using a fluorometric Cathepsin L Activity Assay Kit (ab65306; Abcam) following the manufacturer’s protocols. […] The fluorescence of each sample was measured […]
fluorescence data shown in Figure 4 in the main text are the average of three replicates. […]

The nature of series [4]: Stability of peptides in HepG2 whole cell lysate. The note with it: human, 20 μM peptide, 0.05 mg/mL lysate, HPLC. Type of series: in vitro ADME. On the procedure: Stability of Peptides in HepG2 Whole Cell Lysate
Using the same conditions as the previous Cts L Activity Assay in HepG2 Whole Cell Lysate, 50 μL peptide (either R1A or RS1A; final concentration 20 μM) was incubated in 50 μL HepG2 whole cell lysate (to a final concentration of 0.05 mg/mL) in the assay buffer for different time points.
The all-amide peptide, R 1A, was incubated for t = 0, 5, 10, 15, 20, and 30 minutes. The thioamide peptide, RS1A, was incubated for t = 0, 2, 6, 8, 10, and 24 hours. After incubation for the desired amount of time, 100 μL methanol was added to the mixture and incubated at -20 °C for 10 minutes before spinning down at 13,000 rpm for 10 minutes. Then, 180 μL of each mixture was further diluted with 220 μL Milli-Q water to a total volume of 400 μL before adding 1 μL 0.42 mM coumarin internal standard for HPLC analysis. The coumarin internal standard was used to normalize the amount of intact peptide in each sample. A Phenomenex Luna® Omega 5 µm PS C18 100 Å analytical column was used to analyze all samples using the same gradient of 20-40 % B over 20 minutes (Solvent A: 0.1% TFA in Milli-Q water; Solvent B: 0.1% TFA in acetonitrile).
Representative HPLC spectra (325 nm) at different time points were also shown to confirm the stability of the peptides in HepG2 whole cell lysate (Figure S26 A & B). MALDI MS was used to confirm the mass from each fraction from the HPLC from experiment with the all-amide peptide (R 1A – expected [M+H]+ = 1133.51 m/z) and the thioamide peptide ( RS1A – expected [M+H]+ = 1149.48 m/z). To calculate the percent intact peptide for each sample, the average ratio of intact peptide to internal standard was compared to that ratio at t = 0. For each time point, the experiment

Another series addresses T1, Cts V (Homo sapiens, UniProt O60911).
T1 construct: purchased Sigma-Aldrich; host or cells: FreeStyle 293-F cells
As to the kind of experiment: Cathepsin V inhibition assay with Z-LR-AMC. Type of series: biochemical. The following applies: pH 5.5, 27 °C, approximate. How it is done:
Phan et al. Electronic SupplementaryInformation
Cathepsin V Inhibition Assay. For cathepsin V (Cts V, 0.38 mg/mL, solution; recombinant, expressed in FreeStyle™ 293-F cells, ≥90% pure by SDS-PAGE), various concentrations of the […]
A stock solution of 0.35 mg/mL enzyme
Three independent trials were
Similar to the analysis with Cts L, these curves
CA) using Eq. S1 to determine Vmax and KM (Table S19). 5 Turnover number (k cat) was calculated by dividing V max by the enzyme concentration (Table S19).
Similar analysis was done for Cts V, Cts K, Cts S, and Cts B to evaluate and approximate the inhibitory effects of the thiopeptide RS1A. Initial evaluation of the kinetic parameters were obtained […]
24), then the data were further analyzed with the non-linear regression method with a mixed - […]
the mechanism with the parameter α. Further fitting to an appropriate model (e.g. uncompetitive, competitive, or non-competitive model) was performed if needed. The approximate kinetic parameters resulted from best fit models for the RS1A peptide and the corresponding proteases are […]
Table S24. Approximate Kinetic Parameters for Cts L, V, K, S, and B Inhibition by R S1A Peptide (μHLFR SAμ).
Protease α (Best Fitted Model) KI (μM) αKI or KI'
Cts S Very large (Competitive) 53.47 ± 11.42 - Cts B Very large (Competitive) >> 50 -

Sequence of Cts L (P07711 114-333): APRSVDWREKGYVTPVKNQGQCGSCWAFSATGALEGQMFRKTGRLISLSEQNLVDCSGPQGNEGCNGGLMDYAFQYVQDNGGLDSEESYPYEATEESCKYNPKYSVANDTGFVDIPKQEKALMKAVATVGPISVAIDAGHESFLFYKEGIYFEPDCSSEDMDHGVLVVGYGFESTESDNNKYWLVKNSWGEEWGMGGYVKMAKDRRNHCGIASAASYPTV
T1 sequence (O60911 114-334): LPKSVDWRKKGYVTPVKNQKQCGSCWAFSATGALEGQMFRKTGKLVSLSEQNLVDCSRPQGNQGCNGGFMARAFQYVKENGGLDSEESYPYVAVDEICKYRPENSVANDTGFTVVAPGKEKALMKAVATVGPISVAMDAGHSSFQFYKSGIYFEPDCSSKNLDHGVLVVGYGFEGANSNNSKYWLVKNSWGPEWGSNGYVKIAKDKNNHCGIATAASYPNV

As for “μHLFR^SAAAμ (H-[Ala(7-MeO-coumarin-4-yl)]HLF[X1]AA[Ala(7-MeO-coumarin-4-yl)]-OH; SMILES COc1ccc2c(C[C@H](NC(=O)[C@H](C)NC(=O)[C@H](C)NC(=O)[C@H](C)NC(=S)[C@H](CCCNC(=N)N)NC(=O)[C@H](Cc3ccccc3)NC(=O)[C@H](CC(C)C)NC(=O)[C@H](Cc3c[nH]cn3)NC(=O)[C@@H](N)Cc3cc(=O)oc4cc(OC)ccc34)C(=O)O)cc(=O)oc2c1)”, the not cleaved result with cathepsin V (Cts V), with cathepsin K (Cts K) and in the series on cathepsin S (Cts S) was “No cleavage” each time. Moreover, the cleaved bond result in the series on cathepsin B (Cts B) and in the series on cathepsin L (Cts L) [1] was “A-A” throughout.
As for “μHLFK^SAAAμ (H-[Ala(7-MeO-coumarin-4-yl)]HLF[X2]AA[Ala(7-MeO-coumarin-4-yl)]-OH; SMILES COc1ccc2c(C[C@H](NC(=O)[C@H](C)NC(=O)[C@H](C)NC(=O)[C@H](C)NC(=S)[C@H](CCCCN)NC(=O)[C@H](Cc3ccccc3)NC(=O)[C@H](CC(C)C)NC(=O)[C@H](Cc3c[nH]cn3)NC(=O)[C@@H](N)Cc3cc(=O)oc4cc(OC)ccc34)C(=O)O)cc(=O)oc2c1)”, the not cleaved entry with cathepsin V (Cts V), in the series with cathepsin K (Cts K) and in the series on cathepsin S (Cts S) was “No cleavage” in each case. The cleaved bond result in the series on cathepsin B (Cts B) and in the series with cathepsin L (Cts L) [1] was “A-A” in each case.
For μHLFR^SAμ, the not cleaved entry in the series with cathepsin V (Cts V), in the series on cathepsin K (Cts K), in the series on cathepsin S (Cts S), with cathepsin B (Cts B) and in the series on cathepsin L (Cts L) [1] was “No cleavage” throughout.
Consider HLFR^SA, for which the not cleaved result with cathepsin L (Cts L) [2] is given as “remained intact after the 2-hour assay”.
Regarding “μHLFRAμ (H-[Ala(7-MeO-coumarin-4-yl)]HLFRA[Ala(7-MeO-coumarin-4-yl)]-OH; SMILES COc1ccc2c(C[C@H](NC(=O)[C@H](C)NC(=O)[C@H](CCCNC(=N)N)NC(=O)[C@H](Cc3ccccc3)NC(=O)[C@H](CC(C)C)NC(=O)[C@H](Cc3c[nH]cn3)NC(=O)[C@@H](N)Cc3cc(=O)oc4cc(OC)ccc34)C(=O)O)cc(=O)oc2c1)”, the fragment found result was “µHLFR; Aµ, 5 mins” in [3] and “μHLFR, 5 mins; also recorded: Aμ, 5 mins” in the series “HepG2 whole cell lysate”. The cleaved bond entry in the series on cathepsin B (Cts B) is reported as “R-A”.
`COc1ccc2c(C[C@H](NC(=O)[C@H](C)NC(=S)[C@H](CCCNC(=N)N)NC(=O)[C@H](Cc3ccccc3)NC(=O)[C@H](CC(C)C)NC(=O)[C@H](Cc3c[nH]cn3)NC(=O)[C@@H](N)Cc3cc(=O)oc4cc(OC)ccc34)C(=O)O)cc(=O)oc2c1` [R^S1A] (H-[Ala(7-MeO-coumarin-4-yl)]HLF[X1][Ala(7-MeO-coumarin-4-yl)]-OH): at Cts L, the IC50 (as a rule, the concentration needed to halve the response being measured) was 19 µM and 19.3 µM. In addition, in series [4], the half-life (as a rule, the time in which the quantity being followed falls by half) at 20 μM is 28.6 h. At Cts V, the Ki (in general, the equilibrium dissociation constant of an inhibitor or competing ligand from its target) came to 26.2 ± 8.42 µM.
Take “μHLFKAAAμ (H-[Ala(7-MeO-coumarin-4-yl)]HLFKAAA[Ala(7-MeO-coumarin-4-yl)]-OH; SMILES COc1ccc2c(C[C@H](NC(=O)[C@H](C)NC(=O)[C@H](C)NC(=O)[C@H](C)NC(=O)[C@H](CCCCN)NC(=O)[C@H](Cc3ccccc3)NC(=O)[C@H](CC(C)C)NC(=O)[C@H](Cc3c[nH]cn3)NC(=O)[C@@H](N)Cc3cc(=O)oc4cc(OC)ccc34)C(=O)O)cc(=O)oc2c1)”: the cleaved bond result in the series with cathepsin S (Cts S) and in the series on cathepsin B (Cts B) was “K-A” in each case.
For the molecule “μHLFRAAAμ (H-[Ala(7-MeO-coumarin-4-yl)]HLFRAAA[Ala(7-MeO-coumarin-4-yl)]-OH; SMILES COc1ccc2c(C[C@H](NC(=O)[C@H](C)NC(=O)[C@H](C)NC(=O)[C@H](C)NC(=O)[C@H](CCCNC(=N)N)NC(=O)[C@H](Cc3ccccc3)NC(=O)[C@H](CC(C)C)NC(=O)[C@H](Cc3c[nH]cn3)NC(=O)[C@@H](N)Cc3cc(=O)oc4cc(OC)ccc34)C(=O)O)cc(=O)oc2c1)”, the cleaved bond result in the series with cathepsin S (Cts S) and in the series with cathepsin B (Cts B) was “R-A” throughout.
